Assay results from the CheMixHub drug solubility set.

Experiment: xn = mol fraction of the nth substance listed, in the solute-free solvent

COC1=CC(=O)CC(C)C12Oc1c(Cl)c(OC)cc(OC)c1C2=O (stereo unspecified) + CCC(C)=O + CC(C)O
solubility (g/100 g solution)
Settings | 283.15 K | 288.15 K | 293.15 K | 298.15 K | 303.15 K | 308.15 K | 313.15 K | 318.15 K | 323.15 K
x2 = 0.1 | 0.162 | 0.217 | 0.254 | 0.338 | 0.391 | 0.463 | 0.543 | 0.669 | 0.836
x2 = 0.2 | 0.326 | 0.374 | 0.44 | 0.557 | 0.606 | 0.77 | 0.892 | 1.05 | 1.26
x2 = 0.3 | 0.497 | 0.571 | 0.668 | 0.821 | 0.894 | 1.11 | 1.28 | 1.52 | 1.79
x2 = 0.4 | 0.684 | 0.779 | 0.9 | 1.11 | 1.23 | 1.44 | 1.68 | 1.93 | 2.25
x2 = 0.5 | 0.96 | 1.07 | 1.21 | 1.4 | 1.59 | 1.85 | 2.11 | 2.4 | 2.79
x2 = 0.6 | 1.22 | 1.37 | 1.51 | 1.75 | 1.98 | 2.26 | 2.58 | 2.92 | 3.41
x2 = 0.7 | 1.5 | 1.66 | 1.8 | 2.07 | 2.31 | 2.62 | 2.97 | 3.34 | 3.79
x2 = 0.8 | 1.7 | 1.87 | 2.04 | 2.37 | 2.6 | 2.94 | 3.29 | 3.75 | 4.16
x2 = 0.9 | 1.84 | 2.02 | 2.22 | 2.58 | 2.81 | 3.18 | 3.52 | 4 | 4.41

O=C1CCc2ccc(OCCCCN3CCN(c4cccc(Cl)c4Cl)CC3)cc2N1 + CCC(C)=O + CC(C)=O
solubility (g/100 g solution)
Settings | 278.15 K | 283.15 K | 288.15 K | 293.15 K | 298.15 K | 303.15 K | 308.15 K | 313.15 K | 318.15 K
x2 = 0.1 | 0.779 | 0.97 | 1.13 | 1.44 | 1.75 | 2.16 | 2.61 | 3.34 | 4.18
x2 = 0.2 | 0.882 | 1.07 | 1.25 | 1.61 | 1.94 | 2.32 | 2.83 | 3.58 | 4.41
x2 = 0.3 | 0.948 | 1.16 | 1.34 | 1.71 | 2.09 | 2.46 | 3.02 | 3.74 | 4.62
x2 = 0.4 | 1.01 | 1.22 | 1.43 | 1.78 | 2.19 | 2.59 | 3.21 | 3.88 | 4.8
x2 = 0.5 | 1.05 | 1.28 | 1.5 | 1.86 | 2.28 | 2.71 | 3.34 | 4.01 | 4.96
x2 = 0.6 | 1.09 | 1.34 | 1.57 | 1.93 | 2.36 | 2.82 | 3.46 | 4.13 | 5.1
x2 = 0.7 | 1.12 | 1.38 | 1.63 | 1.99 | 2.43 | 2.91 | 3.54 | 4.23 | 5.21
x2 = 0.8 | 1.15 | 1.43 | 1.68 | 2.06 | 2.49 | 2.99 | 3.62 | 4.3 | 5.27
x2 = 0.9 | 1.17 | 1.47 | 1.72 | 2.12 | 2.54 | 3.06 | 3.68 | 4.35 | 5.31

CC(=O)OC(c1ccccc1)C(Cl)(Cl)Cl (stereo unspecified) + CCO + O
solubility (g/100 g solution)
Settings | 288.15 K | 293.15 K | 298.15 K | 303.15 K | 308.15 K | 313.15 K | 318.15 K | 323.15 K | 328.15 K
x2 = 0.4 | 0.237 | 0.492 | 0.787 | 1.3 | 1.94 | 2.85 | 3.79 | 4.63 | 5.65
x2 = 0.5 | 0.569 | 0.744 | 1.1 | 1.98 | 2.72 | 3.4 | 4.43 | 6.17 | 8.15
x2 = 0.6 | 1.11 | 1.43 | 1.77 | 3.24 | 4.3 | 5.43 | 7.34 | 9.98 | 13.9
x2 = 0.7 | 1.91 | 2.46 | 3 | 4.64 | 6.14 | 7.47 | 9.86 | 13.2 | 18
x2 = 0.8 | 2.52 | 3.05 | 4.06 | 6.07 | 7.63 | 9.55 | 12.1 | 16.4 | 21.2
x2 = 0.9 | 3.42 | 4.13 | 5.46 | 7.3 | 9.27 | 11.8 | 15.2 | 20 | 26.4

O=C(O)c1ccc(C(=O)O)o1 + O + COCCOC
solubility (g/100 g solution)
Settings | 303.15 K | 308.15 K | 313.15 K | 318.15 K | 323.15 K | 328.15 K | 333.15 K | 338.15 K | 343.15 K
x2 = 0.1 | 1.42 | 1.44 | 1.5 | 1.57 | 1.65 | 1.75 | 1.83 | 1.93 | 2.05
x2 = 0.2 | 2.73 | 2.79 | 2.9 | 3.02 | 3.16 | 3.31 | 3.48 | 3.7 | 3.94
x2 = 0.3 | 3.75 | 3.9 | 4.06 | 4.22 | 4.39 | 4.58 | 4.79 | 5.05 | 5.33
x2 = 0.4 | 4.61 | 4.81 | 5.03 | 5.24 | 5.47 | 5.78 | 6.11 | 6.45 | 6.82
x2 = 0.5 | 5.53 | 5.75 | 6.03 | 6.31 | 6.69 | 7.05 | 7.45 | 7.81 | 8.16
x2 = 0.6 | 6.14 | 6.36 | 6.59 | 6.86 | 7.15 | 7.49 | 7.86 | 8.22 | 8.61
x2 = 0.7 | 5.57 | 5.8 | 6.08 | 6.35 | 6.64 | 6.93 | 7.24 | 7.62 | 8.03
x2 = 0.8 | 4.68 | 4.88 | 5.09 | 5.35 | 5.55 | 5.83 | 6.13 | 6.48 | 6.86
x2 = 0.9 | 4.41 | 4.57 | 4.74 | 4.91 | 5.11 | 5.32 | 5.55 | 5.87 | 6.22

CC(=O)OC(c1ccccc1)C(Cl)(Cl)Cl (stereo unspecified) + CC(=O)O + O
solubility (g/100 g solution)
Settings | 288.15 K | 293.15 K | 298.15 K | 303.15 K | 308.15 K | 313.15 K | 318.15 K | 323.15 K | 328.15 K
x2 = 0.4 | 0.229 | 0.34 | 0.495 | 0.65 | 0.966 | 1.43 | 1.81 | 2.64 | 3.12
x2 = 0.5 | 0.758 | 0.967 | 1.23 | 1.62 | 2.27 | 2.97 | 3.85 | 5.28 | 7.16
x2 = 0.6 | 1.45 | 2.06 | 2.67 | 3.47 | 4.47 | 5.57 | 7.52 | 10.1 | 13.4
x2 = 0.7 | 2.88 | 3.73 | 4.74 | 6.03 | 7.75 | 9.86 | 12.5 | 16.9 | 23.4
x2 = 0.8 | 4.78 | 6.15 | 7.58 | 9.47 | 12 | 15.1 | 19.5 | 25.6 | 33.9
x2 = 0.9 | 7.43 | 9.03 | 10.9 | 13.5 | 17 | 21.2 | 26.5 | 33.8 | 42.7
